This note sets out measurements from ChEMBL document CHEMBL1201862, “PubChem BioAssay data set” (2004).

Assay in all cases: NCI tumour cell line growth inhibition, 48 h
Assay [1] relates to 786-0.
The test system of assay [2] is COLO 205.
Assay [3] concerns HCC 2998.
Assay [4] relates to HCT-116.
The test system of assay [5] is HCT-15.
Assay [6] relates to K562.
The subject of assay [7] is KM12.
In assay [8] the test system is LOX IMVI.
The subject of assay [9] is Malme-3M.
In assay [10] the test system is OVCAR-3.
Assay [11] concerns RPMI-8226.
Assay [12] has as its system SF-295.
Assay [13] has as its system SK-OV-3.
For assay [14], the system named is SNB-75.
The test system of assay [15] is TK-10.
Assay [16] relates to U-251.
Assay [17] relates to HOP-92.
The test system of assay [18] is SK-MEL-5.
For assay [19], the system named is A498.

Each structure is given as a SMILES string.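 A five-concentration, 48-hour dose response in 96-well plates underlies each endpoint, interpolated linearly between surrounding concentrations. GI50 marks 50% less growth.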 Calls of active or inactive are those of the source. Rule as the data show it: active = GI50 up to about 1.1 µM and inactive = higher.

Turning to `O=C(O)CC1CC=C[C@H]2c3cc4c(cc3C(=O)NC12)OCO4` (stereo partly specified), the GI50 in assay [1] was > 75 µM (inactive); in assay [2], > 75 µM (inactive); in [3] it was > 75 µM (inactive); in assay [4], > 75 µM (inactive); in [5] it was more than 75 µM; in [6] it was > 75 µM (inactive). The GI50 in [7], in assay [8], in assay [9], in assay [10], in assay [11] and in [12] was > 75 µM (inactive) throughout. Also, the GI50 in assay [13], in assay [14], in assay [15] and in assay [16] was > 75 µM (inactive) in each case.
In the case of `CCc1cc(C)cc2[n+]1CC=C2.[O-][Cl+3]([O-])([O-])[O-]`, the GI50 in assay [1] was 27.5 µM (inactive); in [2] it was 21.9 µM (inactive); in assay [3] it was 43.6 µM (inactive); in assay [4], 18.2 µM (inactive); in assay [17] it was 11.6 µM (inactive); in [7], 32.9 µM (inactive). For the same compound, the GI50 in assay [8] is 32.7 µM (inactive); in assay [9], 15.9 µM (inactive); in assay [12], 31.6 µM (inactive); in [14], 22.9 µM (inactive); in assay [15] it was 44.1 µM (inactive); in [16] it was 39.5 µM (inactive).
For `CC(=O)OCCc1cccnc1/C=N/O`, the GI50 in [1] was > 100 µM (inactive); in assay [2], > 100 µM (inactive); in assay [3] it was > 100 µM (inactive); in [4] it was > 100 µM (inactive); in assay [5], more than 100 µM; in [17] it was > 100 µM (inactive). The GI50 in [6], in [7], in assay [8], in assay [9], in assay [10] and in [12] was > 100 µM (inactive) each time. The GI50 in assay [18], in [13], in assay [14], in assay [15] and in assay [16] was > 100 µM (inactive) throughout.
With `O=c1cc(-c2ccc(O)cc2)oc2cc(O)cc(O)c12` [APIGENIN], the GI50 is 34.3 µM (inactive) in [1]; 38.9 µM (inactive) in assay [2]; 23.9 µM (inactive) in [3]; 24.2 µM (inactive) in assay [4]; 28.1 µM in assay [5]; 20.2 µM (inactive) in assay [17]. The GI50 in [6] was 32.7 µM (inactive); in assay [7], 23.1 µM (inactive); in [8], 21.4 µM (inactive); in assay [9], 33.9 µM (inactive); in [10] it was 24.2 µM (inactive); in assay [11] it was 37.7 µM (inactive). Moreover, the GI50 in [12] is 27.2 µM (inactive); in assay [18], 25.4 µM (inactive); in assay [13], 34.9 µM (inactive); in assay [14] it was 21.6 µM (inactive); in assay [15], 41.2 µM (inactive); in [16], 22.6 µM (inactive).
As to `Cc1cc(N(CCC#N)CCC#N)ccc1/N=N/c1ccc(C(=O)O)cc1`, the GI50 is > 100 µM (inactive) in assay [1]; > 100 µM (inactive) in assay [19]; > 100 µM (inactive) in [2]; > 100 µM (inactive) in assay [3]; more than 100 µM in assay [5]; > 100 µM (inactive) in [7]. The GI50 is > 100 µM (inactive) in assay [8]; > 100 µM (inactive) in assay [9]; > 100 µM (inactive) in assay [10]; 99.3 µM (inactive) in assay [11]; > 100 µM (inactive) in assay [12]; > 100 µM (inactive) in [18]. The GI50 was > 100 µM (inactive) in [13], 36.7 µM (inactive) in [14], > 100 µM (inactive) in assay [15] and > 100 µM (inactive) in [16].
Turning to `CC12CC(=O)OC(Cc3ccccc31)O2` (stereo unspecified), the GI50 in assay [1], in [2], in assay [3], in assay [4], in assay [17] and in assay [6] was > 100 µM (inactive) in each case. The GI50 in [7], in [8], in assay [9], in [10], in [11] and in [12] was > 100 µM (inactive) each time. Further, the GI50 in assay [13], in assay [14], in [15] and in assay [16] was > 100 µM (inactive) throughout.
As for `Cc1ccccc1/N=N/c1c(O)ccc2ccccc12`, the GI50 was 48.9 µM (inactive) in [1]; > 100 µM (inactive) in [2]; 69.5 µM (inactive) in assay [4]; more than 100 µM in [5]; > 100 µM (inactive) in [17]; > 100 µM (inactive) in assay [6]. For the same compound, the GI50 in assay [7] was 16.4 µM (inactive); in assay [8], 40.5 µM (inactive); in assay [9] it was > 100 µM (inactive); in assay [10], > 100 µM (inactive); in assay [11], > 100 µM (inactive); in assay [12], 77.1 µM (inactive). The GI50 is > 100 µM (inactive) in [18]; > 100 µM (inactive) in assay [13]; > 100 µM (inactive) in [14]; > 100 µM (inactive) in assay [15]; 70.1 µM (inactive) in [16].
Take `CC(=O)Nc1ccc(S(=O)(=O)N/N=C/c2cc(I)cc([N+](=O)[O-])c2O)cc1`: the GI50 in assay [1] was > 100 µM (inactive); in assay [19], > 100 µM (inactive); in assay [2], > 100 µM (inactive); in assay [3], > 100 µM (inactive); in [5], 75.5 µM; in assay [6], 57.3 µM (inactive). The GI50 in assay [7] is > 100 µM (inactive); in assay [8], 80.9 µM (inactive); in assay [9] it was 46.3 µM (inactive); in assay [10], > 100 µM (inactive); in assay [11], 36.6 µM (inactive); in [12], > 100 µM (inactive). Further, the GI50 was 44 µM (inactive) in assay [18]; 85.3 µM (inactive) in [13]; 25.6 µM (inactive) in [14]; > 100 µM (inactive) in [15]; 49.4 µM (inactive) in assay [16].
For `CN(C)CC/C(=N\Nc1c(Cl)cccc1Cl)c1ccccc1`, the GI50 in assay [1] was 15.3 µM (inactive); in assay [19], 16.6 µM (inactive); in assay [2], 15.6 µM (inactive); in assay [4], 15.3 µM (inactive); in [5] it was 17.7 µM; in assay [6], 20.6 µM (inactive). Besides, the GI50 is 17 µM (inactive) in [7]; 17.3 µM (inactive) in assay [8]; 21 µM (inactive) in assay [9]; 22.8 µM (inactive) in [10]; 17.2 µM (inactive) in assay [11]; 16 µM (inactive) in [12]. Moreover, the GI50 in [18] is 15.1 µM (inactive); in [13], 22.5 µM (inactive); in [14], 15.2 µM (inactive); in assay [15], 16.8 µM (inactive); in assay [16], 16.8 µM (inactive).
